Assay results taken from the NIST ThermoML archive (doi:10.1021/je100472t).

Test: xn = mol fraction of the nth substance listed
Conditions: 101 kPa, Liquid; for speed of sound: Pulse-echo method; for mass density: Vibrating tube method

Nc1ccccc1 [aniline] + CCC(C)=O
Conditions | mass density [kg/m3] | speed of sound [m/s]
293.15 K, x2 = 0.058 | 1011.29 | 1633.7
293.15 K, x2 = 0.1122 | 1001.34 | 1612.2
293.15 K, x2 = 0.1576 | 993.678 | 1594.7
293.15 K, x2 = 0.2052 | 985.068 | 1576
293.15 K, x2 = 0.2543 | 976.056 | 1556.7
293.15 K, x2 = 0.3043 | 966.42 | 1536.6
293.15 K, x2 = 0.3562 | 956.208 | 1515.5
293.15 K, x2 = 0.4059 | 946.279 | 1495.2
293.15 K, x2 = 0.453 | 936.5 | 1475.2
293.15 K, x2 = 0.5048 | 925.617 | 1453.2
293.15 K, x2 = 0.5443 | 917.103 | 1435.8
293.15 K, x2 = 0.612 | 902.143 | 1405.4
293.15 K, x2 = 0.648 | 894.022 | 1389
293.15 K, x2 = 0.7044 | 880.787 | 1362.1
293.15 K, x2 = 0.7754 | 863.737 | 1328.6
293.15 K, x2 = 0.8081 | 855.598 | 1311.3
293.15 K, x2 = 0.8493 | 845.213 | 1290.5
293.15 K, x2 = 0.9027 | 831.249 | 1262.9
293.15 K, x2 = 0.9476 | 819.373 | 1239.6
298.15 K, x2 = 0.056 | 1007.34 | 1615.4
298.15 K, x2 = 0.1188 | 997.647 | 1593.6
298.15 K, x2 = 0.1547 | 990.216 | 1576.9
298.15 K, x2 = 0.2038 | 981.189 | 1557.5
298.15 K, x2 = 0.2563 | 971.23 | 1536.5
298.15 K, x2 = 0.3064 | 961.559 | 1516.3
298.15 K, x2 = 0.3474 | 953.414 | 1499.6
298.15 K, x2 = 0.4089 | 940.989 | 1474.1
298.15 K, x2 = 0.4523 | 932.032 | 1455.8
298.15 K, x2 = 0.5026 | 921.385 | 1434.1
298.15 K, x2 = 0.5467 | 911.916 | 1414.9
298.15 K, x2 = 0.6019 | 899.666 | 1390
298.15 K, x2 = 0.6481 | 889.131 | 1368.5
298.15 K, x2 = 0.7048 | 875.989 | 1341.9
298.15 K, x2 = 0.7451 | 866.153 | 1322
298.15 K, x2 = 0.803 | 851.853 | 1293.2
298.15 K, x2 = 0.8487 | 840.349 | 1270.1
298.15 K, x2 = 0.9019 | 826.554 | 1242.8
298.15 K, x2 = 0.9489 | 813.934 | 1218
303.15 K, x2 = 0.0582 | 1002.61 | 1596.1
303.15 K, x2 = 0.1097 | 993.104 | 1575.6
303.15 K, x2 = 0.1485 | 986.049 | 1560.3
303.15 K, x2 = 0.205 | 975.667 | 1538
303.15 K, x2 = 0.2507 | 967.388 | 1520.3
303.15 K, x2 = 0.3064 | 956.964 | 1497.9
303.15 K, x2 = 0.3426 | 949.873 | 1483
303.15 K, x2 = 0.414 | 935.434 | 1453.3
303.15 K, x2 = 0.447 | 928.634 | 1439.5
303.15 K, x2 = 0.491 | 919.218 | 1420.3
303.15 K, x2 = 0.5537 | 905.656 | 1392.7
303.15 K, x2 = 0.6044 | 894.417 | 1369.8
303.15 K, x2 = 0.6434 | 885.415 | 1351.5
303.15 K, x2 = 0.7038 | 871.181 | 1322.6
303.15 K, x2 = 0.7716 | 854.721 | 1289.4
303.15 K, x2 = 0.8079 | 845.614 | 1271.1
303.15 K, x2 = 0.8481 | 835.388 | 1250.6
303.15 K, x2 = 0.8988 | 822.096 | 1224.2
303.15 K, x2 = 0.9466 | 809.221 | 1199
